Test results: patent publication US20150291658A1, “NOVEL CHONDRAMIDE DERIVATIVES” (HELMOLTZ-ZENTRUM FÜR INFEKTIONSFORSCHUNG, priority 2012, published 2015)
“Also recorded” adds a separate entry of the source. Read-outs that look alike come from different tables or passages of the source.

How the values were obtained:
[1] = tested on: RAW246.7: murine leukemic monocyte macrophages; test: Growth inhibition experiments (GI50), RAW246.7; format: cell-based; conditions: group A derivatives, small panel of cancer cell lines
[2] = tested on: HCT-116 colon carcinoma cell line; test: Growth inhibition experiments (MTT, 5 d), HCT-116; format: cell-based, human
Procedure: (§1) Cells were seeded at 6×10^3 cells per well of 96-well plates (Corning CellBind®) in 180 μl complete medium and directly treated with chondramides dissolved in methanol in a serial dilution. Each compound was tested in duplicate for 5 d, as well as the internal methanol control. After 5 d incubation, 20 μl of 5 mg/ml MTT (Mosmann, T. (1983). Rapid Colorimetric Assay for Cellular Growth and Survival: Application to Proliferation and Cytotoxicity Assays. J. Immunol. Meth. 65, 55-63) in PBS was added per well and it was further incubated for 2 h at 37° C. The medium was then discarded and cells were washed with 100 μl PBS before adding 100 μl 2-propanol/10 N HCl (250:1) in order to dissolve formazan granules. The absorbance at 570 nm was measured using a microplate reader (EL808, Bio-Tek Instruments Inc.), and cell viability was expressed as percentage relative to the respective methanol control. GI50 values were obtained by sigmoidal curve fitting. Testing of fractions was performed likewise using 1.2×10^4 cells per well. Samples were dissolved in cell culture medium and cells were treated for 2 d before adding MTT. Viability was expressed relative to the untreated control.

[3] = tested on: KB-3.1: human cervical carcinoma; test: Growth inhibition experiments (GI50), KB-3.1; format: cell-based; conditions: for GI50 KB-3.1: group A derivatives, small panel of cancer cell lines, KB-3.1 human cervical carcinoma; for GI50 values KB-3.1: Table 1
[4] = tested on: human U-2 OS osteosarcoma cell line; test: Growth inhibition experiments (MTT, 5 d), U-2 OS; format: cell-based
Procedure: as §1

[5] = tested on: multidrug resistant (MDR) KB-V.1 cell line; test: Growth inhibition experiments (MTT, 5 d), KB-V.1; format: cell-based; conditions: Table 1
Procedure: Cancer Inst. 90, 1559-1563). […] The same applies for most novel derivatives, solely a hydroxyl group at C2′ of the polyketide segment instead of methoxy or simply hydrogen leads to an approximately 10-fold reduced potency. GI50 values of glycosylated derivatives were not determinable precisely in the assay's concentration range.
as §1

[6] = tested on: HUVEC, human umbilical vein endothelial cells (primary cells); test: Growth inhibition experiments (MTT, 5 d), HUVEC; format: cell-based; conditions: Table 1
Description: (§2) With primary cells (HUVEC, human umbilical vein endothelial cells) and the fibroblast cell line MRC5 this is not the case. Whereas chondramides A˜C are comparably active on both, cancer and non-cancerous cells, brominated chondramide C3 analogs are on average by factor 2-4 less toxic for non-cancerous cells. Accordingly they show a higher selectivity.
(§3) Cell lines were obtained from the American Type Culture Collection (ATCC) and the German Collection of Microorganisms and Cell Cultures (Deutsche Sammlung für Mikroorganismen and Zellkulturen, DSMZ), and HUVEC (single donor) were purchased from PromoCell. Cells were cultured under the conditions recommended by the respective depositor in a standard humidified incubator at 37° C. with 5% CO2.
as §1

[7] = tested on: fibroblast cell line MRC5; test: Growth inhibition experiments (MTT, 5 d), MRC5; format: cell-based, human; conditions: Table 1
Procedure: as §2, §1

L-929 = test: Growth inhibition experiments (GI50), L-929; format: cell-based; conditions: Table 1
[8] = biological target: T1, pyrene-labeled rabbit muscle actin (Oryctolagus cuniculus, UniProt P68135); test: Actin polymerization assay (pyrene actin fluorescence); format: biochemical; conditions: 20 μM derivative, 5 μM pyrene actin, non-polymerizing buffer, followed over 85 min
T1 construct: pyrene-labeled rabbit muscle actin; purchased Cytoskeleton, Inc; host or cells: rabbit muscle (tissue-derived; inferred from the name)
Procedure: A final concentration of 20 μM for each derivative was chosen and polymerization was followed over 85 min.
Fluorescence-based actin polymerization assays were performed using pyrene muscle actin (Cytoskeleton, Inc.) according to the supplier's protocol. Chondramides were dissolved in non-polymerizing buffer (5 mM Tris-HCl pH 8.0, 0.2 mM CaCl2, 0.2 mM ATP, 1 mM DTT) and mixed with pyrene actin diluted in the same buffer to give a final concentration of 20 μM chondramide and 5 μM actin. Samples were prepared in black, low-volume 384-well plates (Corning, NBS™ surface). The fluorescence at 405 nm (excitation at 360 nm) was scanned every 30 s for 85 min at 37° C. on a microplate reader (Spectramax M5^e, Molecular Devices). Experiments were performed in duplicates and the average relative fluorescence of polymerizing pyrene actin is given. Slopes were calculated in the linear range of kinetic measurements.

[9] = tested on: panel of cell lines derived from various origins and tissues (cancer cell lines, non-cancerous cell lines, primary cells); test: Growth inhibition experiments (MTT, 5 d), panel of cell lines; format: cell-based
Procedure: First, the compounds were tested on a small panel of cell lines derived from various origins and tissues. GI50 values were compared to those determined using chondramides A˜C (see Table 1).
as §3, §1
These compounds were profiled regarding their growth inhibitory potential in a panel of cancer cell lines. Natural chondramide A was used as reference:
Biological evaluation of group A derivatives. GI50 values [nM] were determined in a small panel of cancer cell lines.

[10] = group A derivatives, small panel of cancer cell lines, HCT-116 human colon carcinoma, read-out: GI50 HCT-116
[11] = group A derivatives, small panel of cancer cell lines, U-2 OS human osteosarcoma, read-out: GI50 U-2 OS
[12] = Table 1, HCT-116, read-out: GI50 values HCT-116
[13] = Table 1, U-2 OS, read-out: GI50 values U-2 OS

Structure (SMILES)	GI50 [1] [nM]	GI50 [2, 10] [nM]	GI50 KB-3.1 [3] [nM]	GI50 [4, 11] [nM]	GI50 [2, 12] [nM]	GI50 values KB-3.1 [3] [nM]	GI50 values KB-V.1 [5] [nM]	GI50 [6] [nM]	GI50 [7] [nM]	GI50 [4, 13] [nM]	GI50 (L-929) [nM]	actin-polymerizing effect (G-actin polymerization in vitro) [8]	growth inhibitory activity in cell lines (in words, compared to chondramides A~C / other derivatives) ([9]; GI50-based comparison, panel of cell lines)	GI50 values on human cancer cell lines ([9]; human cancer cell lines, cell-based studies)
CCC1C/C=C(\C)CC(C)C(=O)NC(C)C(=O)N(C)C(C(C)C)C(=O)NC(c2ccc(O)c(Cl)c2)CC(=O)O1 (single isomer, unassigned) [CA6-Fr1]	41.1	79.4	71.4	59.6										
CCC1C/C=C(\C)CC(C)C(=O)NC(C)C(=O)N(C)C(C(C)C)C(=O)NC(c2ccc(O)c(Cl)c2)CC(=O)O1 (single isomer, unassigned) [CA6-Fr2]	105	101	74.5	65.4										
CCC1C/C=C(\C)CC(C)C(=O)NC(C)C(=O)N(C)C(Cc2c(Cl)[nH]c3ccccc23)C(=O)NC(c2ccc(O)c(Cl)c2)CC(=O)O1 (single isomer, unassigned) [CA7-Fr1]	74.7	16.3	97.9	53.5										
CCC1C/C=C(\C)CC(C)C(=O)NC(C)C(=O)N(C)C(Cc2c(Cl)[nH]c3ccccc23)C(=O)NC(c2ccc(O)c(Cl)c2)CC(=O)O1 (single isomer, unassigned) [CA7-Fr2]	1.8	0.8	1.9	1.3										
CC1=CC(C)C(C)OC(=O)CC(c2ccc(O)c(Br)c2)NC(=O)C(Cc2c[nH]c3ccccc23)N(C)C(=O)C(C)NC(=O)C(C)C1 (centres unmarked) [Bromo-Chondramide C3]					17.7 ± 1.3	46.8 ± 6.5	23.8 ± 2.1	44.4 ± 7	57.7 ± 3.5	4.8 ± 1.7	14 ± 1.4			
C/C1=C\CCOC(=O)CC(c2ccc(O)c(Cl)c2)NC(=O)C(Cc2c(Cl)[nH]c3ccccc23)N(C)C(=O)C(C)NC(=O)CC1 (centres unmarked) [CA2]	180	30.5	375.9	66.7										
C/C1=C\CCOC(=O)CC(c2ccc(O)c(Br)c2)NC(=O)C(Cc2c[nH]c3ccccc23)N(C)C(=O)C(C)NC(=O)CC1 (centres unmarked) [CA3]	6.2	2.1	6.4	1.8										
CCC1C/C=C(\C)CCC(=O)NC(C)C(=O)N(C)C(C(C)C)C(=O)NC(c2ccc(O)c(Cl)c2)CC(=O)O1 (centres unmarked) [CA4]	29.8	25.5	58.2	> 180										
CCC1C/C=C(\C)CCC(=O)NC(C)C(=O)N(C)C(C(C)C)C(=O)NC(c2ccc(O)c(Cl)c2)CC(=O)O1 (centres unmarked) [CA5]	56.2	77.3	68.7	153										
CCC1C/C=C(\C)CCC(=O)NC(C)C(=O)N(C)C(Cc2c(Cl)[nH]c3ccccc23)C(=O)NC(c2ccc(O)c(Cl)c2)CC(=O)O1 (centres unmarked) [CA8]	0.8	0.2	1.1	0.6										
C/C1=C\CCOC(=O)CC(c2ccc(O)c(Cl)c2)NC(=O)C(C(C)C)N(C)C(=O)C(C)NC(=O)CC1 (centres unmarked) [CA9]	> 180	180	>180	> 180										
COC1C(=O)OC(C)C(C)C=C(C)CC(C)C(=O)NC(C)C(=O)N(C)C(Cc2c(Cl)[nH]c3ccccc23)C(=O)NC1c1ccc(O)c(Cl)c1 (centres unmarked) [Chondramide A4]					44.4 ± 1.6	56.8 ± 7.0	83.1 ± 1.6	52.5 ± 7.4	12.7 ± 1.4	26.4 ± 2.2	67.6 ± 9.8	similarly potent; also recorded: increases the polymerization rate even more drastically		
CO[C@@H]1C(=O)O[C@H](C)[C@H](C)/C=C(\C)C[C@H](C)C(=O)N[C@@H](C)C(=O)N(C)[C@H](Cc2c[nH]c3ccccc23)C(=O)N[C@H]1c1ccc(O)cc1 [Chondramide A, reference compound]	47.3	91.7	71.6	68.5	48.9 ± 14.6	50.5 ± 15.4	38.0 ± 10.5	43.7 ± 7	63.8 ± 13	27.1 ± 4.1	90.9 ± 11.8			
CO[C@@H]1C(=O)O[C@H](C)[C@@H](C)C=C(C)C[C@H](C)C(=O)N[C@@H](C)C(=O)N(C)[C@H](Cc2c(Cl)[nH]c3ccccc23)C(=O)NC1c1ccc(O)cc1 (some centres unmarked) [Chondramide B, reference compound]					30.1 ± 9.5	40.7 ± 9.4	56.4 ± 9.1	30.7 ± 2.9	20.9 ± 3.2	20.8 ± 1.9	80.8 ± 13.6			
C/C1=C\[C@@H](C)[C@@H](C)OC(=O)C[C@H](c2ccc(O)cc2)NC(=O)[C@@H](Cc2c[nH]c3ccccc23)N(C)C(=O)[C@H](C)NC(=O)[C@@H](C)C1 [Chondramide C, reference compound]					33.7 ± 3.2	36.8 ± 6.8	85.8 ± 14.9	34 ± 3.7	26.1 ± 4.7	25.6 ± 1.2	87.3 ± 14.9			
CCC1OC(=O)CC(c2ccc(O)c(Br)c2)NC(=O)C(Cc2c[nH]c3ccccc23)N(C)C(=O)C(C)NC(=O)C(C)CC(C)=CC1C (centres unmarked) [Propionyl-Bromo-Chondramide C3]					17.2 ± 1.6	38.0 ± 6.5	31.9 ± 2.0	50.2 ± 5.6	130 ± 3.7	9 ± 0.6	23 ± 2.1		the most active in cell-based studies	low nanomolar range
